{
  "source": "patent US11197860B2",
  "about": "(Eli Lilly and Company, priority 2018, dated 2021)",
  "origin": "cited, not measured here",
  "key": {"[1]": {"details": "phase 3 trials; EMA Assessment Report for Olumiant"}, "[2]": {"details": "patients in clinical trials; ALT and AST increases to >=5x and >=10x ULN observed"}, "[3]": {"details": "PBC patients; Nevens et al. 2016"}},
  "data": [
    {"smiles": "CCS(=O)(=O)N1CC(CC#N)(n2cc(-c3ncnc4[nH]ccc34)cn2)C1", "note": "[baricitinib, {1-(ethylsulfonyl)-3-[4-(7H-pyrrolo[2,3-d]pyrimidin-4-yl)-1H-pyrazol-1-yl]azetidin-3-yl}acetonitrile]", "values": [
      {"measurement": "patient's ALP after treatment", "setting": "[1]", "value": "ALP decreased after treatment"},
      {"measurement": "incidence of liver enzyme elevation compared to placebo", "setting": "[2]", "value": "increased incidence of liver enzyme elevation compared to placebo"}
    ]},
    {"smiles": "CC[C@H]1[C@@H](O)[C@@H]2[C@H](CC[C@]3(C)[C@@H]([C@H](C)CCC(=O)O)CC[C@@H]23)[C@@]2(C)CC[C@@H](O)C[C@@H]12", "note": "[obeticholic acid, Obeticholic acid]", "values": [
      {"measurement": "pruritus (adverse effect)", "setting": "[3]", "value": "associated with increased pruritus"}
    ]}
  ]
}
